Experimental data taken from PMC10779222, “Copper(II) Complexes with 1-(Isoquinolin-3-yl)heteroalkyl-2-ones: Synthesis, Structure and Evaluation of Anticancer, Antimicrobial and Antioxidant Potential” (International Journal of Molecular Sciences, 2023).
Values after ≈ are worked out from the molar mass of the structure shown.

Assays:
[1] = ABTS radical scavenging assay; conditions: ±SD; 10 min, 30 °C
Method: The ABTS radical scavenging assay of samples (ligands or complexes) was performed with ascorbic acid as a positive control. Briefly, 30 μL of different concentrations of the samples, dissolved in DMSO, was mixed with 170 μL of ABTS solution (2 mM ABTS diammonium salt, 3.5 mM potassium persulfate) and completed with water to a final volume of 300 μL. ABTS solution with DMSO was used as a control. […] ABTS inhibition was calculated according to the following equation:ABTS Inhibition (%) = [(Acontrol − Asample)/Acontrol] × 100% The radical scavenging activity of the samples was shown as the IC50 value (the concentration of the analyzed samples that caused a decrease in the non-reduced form of the ABTS radical by 50%).

[2] = DPPH radical scavenging assay; conditions: ±SD; 30 min, room temperature
Method: The DPPH radical scavenging assay of samples was performed with ascorbic acid as a positive control. Briefly, 100 μL of different concentrations of the complexes, dissolved in DMSO, was mixed with 100 μL of 0.06 mM DPPH methanolic solution and incubated at room temperature in the dark for 30 min. The change in absorbance at λ = 517 nm was analyzed with the use of a 96-well microplate reader (Epoch, BioTek System, Winooski, VT, USA). The control was composed of DPPH and DMSO. DPPH inhibition was calculated according to the following equation:DPPH Inhibition (%) = [(Acontrol − Asample)/Acontrol] × 100% The radical scavenging activity of the samples was shown as the IC50 value (the concentration of the analyzed samples that caused a decrease in the non-reduced form of the DPPH radical by 50%).

[3] = test system: A375 (melanoma); assay: MTT cytotoxicity assay on A375 cells; type: cell-based, human; conditions: 24 h incubation
Method: (§1) Cytotoxic activity of the investigated compounds was evaluated against T98G (glioblastoma), HepG2 (hepatoma), LS-180 (colon cancer) and A375 (melanoma) cell lines. Human normal skin fibroblasts, CCD-1059Sk (CRL-2072), were used as reference (non-cancerous) cells. All of the cell lines were obtained from American Type Culture Collection (ATCC; Manassas, VA, USA). A375, T98G and CCD-1059Sk cells were cultured in Dulbecco’s Modified Eagle’s Medium (DMEM) (Sigma Aldrich, St. Louis, MO, USA) supplemented with 10% FBS, penicillin (100 U/mL) and streptomycin (100 μg/mL). LS-180 and HepG2 cells were cultured in Eagle’s Minimum Essential Medium supplemented with 10% FBS, penicillin (100 U/mL) and streptomycin (100 μg/mL). All of the cells were maintained at 37 °C in a humidified atmosphere of 5% CO2. The compounds were dissolved in DMSO in order to obtain stock solutions. At the day of the experiment, the suspension of cells (1 × 10^5 cells/mL) was distributed onto 96-well plates at a volume of 100 μL/well. After attachment, the cells were treated with the increased concentrations of the tested compounds in medium containing 2% FBS and incubated for 24 h. Then, the medium was removed from wells, and cells were rinsed with PBS. Afterwards, 15 μL of MTT working solution (5 mg/mL in PBS) was added to each well, and the plates were incubated for 3 h. Subsequently, 100 μL of 10% SDS solution was added to each well in order to dissolve the precipitated formazan crystals. After overnight incubation at 37 °C, the absorbance of the obtained solution was measured at λ = 570 nm using a microplate reader (Epoch, BioTek Instruments, Inc., Winooski, VT, USA). At least two independent experiments were performed in triplicate. […] IC50 values of the investigated derivatives and positive control (etoposide) were calculated using the IC50 online calculator [101].

[4] = test system: CCD-1059Sk (human normal skin fibroblasts); assay: MTT cytotoxicity assay on non-cancerous fibroblasts; type: cell-based; conditions: 24 h incubation, non-cancerous cells
Method: as §1

[5] = test system: LS-180 (colon cancer); assay: MTT cytotoxicity assay on LS-180 cells; type: cell-based, human; conditions: 24 h incubation
Method: as §1

[6] = test system: HepG2 (hepatoma); assay: MTT cytotoxicity assay on HepG2 cells; type: cell-based, human; conditions: MTT, 24 h incubation
Method: as §1

[7] = test system: A375, HepG2, LS-180, T98G and CCD-1059Sk cell lines; assay: MTT cytotoxicity assay, summary statements over several cell lines; type: cell-based
Method: as §1

[8] = test system: T98G (glioblastoma); assay: MTT cytotoxicity assay on T98G cells; type: cell-based; conditions: MTT, 24 h incubation
Method: as §1

[9] = test system: Candida glabrata ATCC 90030; assay: Two-fold microdilution broth method, MIC; type: cell-based; conditions: 35 °C, 24 h
From the text: (§2) Antibacterial and antifungal activities of the free ligands L2, L3 and L4 and the corresponding copper(II) complexes C2, C3 and C4 were screened using the two-fold microdilution broth method. Minimal inhibitory concentrations (MICs) of tested compounds for the panel of reference Gram-positive bacteria, including Staphylococcus aureus ATCC 25923, Staphylococcus aureus ATCC BAA-1707, Staphylococcus epidermidis ATCC 12228, Micrococcus luteus ATCC 10240 and Bacillus cereus ATCC 10876; Gram-negative bacteria, including Salmonella Typhimurium ATCC 14028, Escherichia coli ATCC 25922, Proteus mirabilis ATCC 12453, Klebsiella pneumoniae ATCC 13883 and Pseudomonas aeruginosa ATCC 9027; and yeasts, including Candida albicans ATCC 102231, Candida parapsilosis ATCC 22019 and Candida glabrata ATCC 90030 were determined. The procedure has been described in detail before. Briefly, the solutions of tested compounds dissolved in dimethylosulfoxide (DMSO) were suspended in Mueller–Hinton broth for bacteria or Mueller–Hinton broth with 2% glucose for fungi. Then, the series of two-fold dilutions were carried out in the sterile Nunc™ MicroWell™ 96-Well Microplates (ThermoFisher Scientific Inc.), obtaining concentrations from 1000 to 7.8 mg/L in the appropriate medium. Simultaneously, the inocula of 24 h cultures of microorganisms in sterile physiological saline (0.5 McFarland standard density) were prepared and added to each well, obtaining final density of 5 × 10^5 CFU/mL for bacteria and 5 × 10^4 CFU/mL for yeasts. Proper positive (inoculum without tested compound) and negative (compound without inoculum) controls were added in each microplate. After incubation (35 °C, 24 h), the growth of microorganisms was measured spectrophotometrically at 600 nm (BioTEK ELx808, Bio-Tek Instruments, Inc., Winooski, VT, USA). MICs were marked at the lowest concentration of the compound without the growth of bacteria or fungi.

[10] = test system: Candida parapsilosis ATCC 22019; assay: Two-fold microdilution broth method, MIC; type: cell-based; conditions: 35 °C, 24 h
From the text: as §2

[11] = test system: Candida albicans ATCC 102231; assay: Two-fold microdilution broth method, MIC; type: cell-based; conditions: 35 °C, 24 h
From the text: as §2

Structure (SMILES)	IC50 ABTS [1]	IC50 DPPH [2]	IC50 ± SD, A375 [3]	IC50 ± SD, CCD-1059-Sk [4]	IC50 ± SD, LS180 [5]	IC50 ± SD, HepG2 [6]	IC50, HepG2 and T98G ([7]; range over HepG2 and T98G)	IC50 ± SD, T98G [8]	MIC, C. glabrata ATCC 90030 [9]	MIC, C. parapsilosis ATCC 22019 [10]	MIC, C. albicans ATCC 102231 [11]	IC50, HepG2, LS180 and T98G ([7]; range over HepG2, LS180 and T98G)
O=C1O[C@H]([C@@H](O)CO)C(O)=C1O [Ascorbic acid, reference compound]	20.15 ± 0.33 µg/mL (≈ 114 µM)	11.65 ± 0.54 µg/mL (≈ 66.1 µM)	–	–	–	–	–	–	–	–	–	–
O=C1CCN1c1cc2ccccc2cn1.O=C1CCN1c1cc2ccccc2cn1.[Cl][Cu][Cl] [C1, Dichloro{bis[1-(Isoquinolin-3-yl)azetidin-2-one]}copper(II)]	112.67 ± 1.8 µg/mL	37.45 ± 0.66 µg/mL	37.97 ± 3.01 µg/mL	18.83 ± 0.91 µg/mL	11.46 ± 0.69 µg/mL	14.89 ± 0.56 µg/mL	8.25 to 14.89 µg/mL	8.25 ± 0.36 µg/mL	–	–	–	–
CN1CCN(c2cc3ccccc3cn2)C1=O.[Cl][Cu][Cl] [C3, Dichloro[1-(Isoquinolin-3-yl)-3-methylimidazolidin-2-one]copper(II)]	106.19 ± 2.55 µg/mL	380.65 ± 2.74 µg/mL	22.78 ± 1.14 µg/mL	25.17 ± 0.85 µg/mL	7.09 ± 0.53 µg/mL	12.00 ± 0.36 µg/mL	–	10.55 ± 0.74 µg/mL	1000 µg/mL	1000 µg/mL	1000 µg/mL	–
CCN1CCN(c2cc3ccccc3cn2)C1=O.[Cl][Cu][Cl] [C4, Dichloro[1-ethyl-3-(isoquinolin-3-yl)imidazolidin-2-one]copper(II)]	72.5 ± 0.97 µg/mL	26.46 ± 1.04 µg/mL	37.80 ± 3.11 µg/mL	18.25 ± 1.37 µg/mL	5.92 ± 0.54 µg/mL	–	–	9.27 ± 0.11 µg/mL	>1000 µg/mL	>1000 µg/mL	500 µg/mL	5.92 to 9.27 µg/mL
